Laboratory results from paper PMC8413292, “Small-molecule polymerase inhibitor protects non-human primates from measles and reduces shedding” (Nature Communications, 2021).
“And” between values parts separate entries of the source, which are not always exact repeats. Equal entries are not always repeated.

Assays:
[1] = test system: MV/FrankfurtMain.DEU/17.11 (genotype D8); experiment: PBMC-associated viremia titers (limited dilution, TCID50/10^6 PBMCs); type: in vivo, squirrel monkeys (Saimiri sciureus); conditions: for Viral titers: individual animals
Procedure: (§1) White blood cell counts, viral load quantification in PBMCs, and quantification of neutralizing antibody titers were performed as follows: for white blood cell counts, blood was diluted 1:100 in 3% acetic acid and cells were counted using a Neubauer chamber. For viral load quantification in PBMCs, blood was centrifuged at 3000 rpm for 15 min and serum was frozen at −20 °C until further use. Red blood cell lysis was performed and the remaining PBMCs were counted using a Neubauer chamber. Viral titers in PBMCs were quantified in quadruplicates using limited dilution method and calculated as TCID50/10^6 PBMCs. Neutralizing antibody titers were quantified by incubating MeV with 2-fold serial dilutions of the respective serum for 20 min at room temperature in quadruplicates. Vero/hSLAM cells were added and incubated for 3 days at 37 °C. Neutralizing antibody titers are expressed as the reciprocal of the highest serum dilution showing no signs of infection. For virus titration from throat swabs, swabs were placed in 150 μl DMEM with 3% penicillin/streptomycin and the titer was quantified by limited dilution method.

[2] = test system: MV/FrankfurtMain.DEU/17.11 (genotype D8); experiment: Throat swab virus titers (shed virus, limited dilution); type: in vivo, squirrel monkeys (Saimiri sciureus); conditions: day 7 therapeutic group; within 72 h of treatment initiation
Procedure: as §1

For Cn1nc(C(F)(F)F)cc1C(=O)Nc1ccc(S(=O)(=O)N2CCCC[C@H]2CCN2CCOCC2)cc1 [ERDRP-0519], the “effect on PBMC-associated virus replication” value ([1]; day 3 therapeutic administration) was “effectively suppressed virus replication”, the Viral titers ([1]; prophylactic group, day 3) was 1.745 log10(TCID50/106 PBMCs) and the Viral titers ([1]; prophylactic group, day 7) was 1.509 log10(TCID50/106 PBMCs) and 0 log10(TCID50/106 PBMCs). The Viral titers ([1]; prophylactic group, day 10) was 1.807 log10(TCID50/106 PBMCs), the Viral titers ([1]; prophylactic group, day 17) was 0.7747 log10(TCID50/106 PBMCs) and the Viral titers ([1]; prophylactic group, day 21) was 2.352 log10(TCID50/106 PBMCs). For the same molecule, the “decrease of viremia titers on average compared to untreated animals” value ([1]; prophylactic treatment) was “up to 250 fold”, the “PBMC Titers, group mean (Mean 2)” value ([1]; prophylactic, Row 1 (1st of 7 time points)) was 0 and the “PBMC Titers, group mean (Mean 2)” value ([1]; prophylactic, Row 2 (2nd of 7 time points)) was 0.2908. The “PBMC Titers, group mean (Mean 2)” value ([1]; prophylactic, Row 3 (3rd of 7 time points)) was 0.2514, the “PBMC Titers, group mean (Mean 2)” value ([1]; prophylactic, Row 4 (4th of 7 time points)) was 0.3012 and the “PBMC Titers, group mean (Mean 2)” value ([1]; prophylactic, Row 5 (5th of 7 time points)) was 0. The “PBMC Titers, group mean (Mean 2)” value ([1]; prophylactic, Row 6 (6th of 7 time points)) was 0.1283, the “PBMC Titers, group mean (Mean 2)” value ([1]; prophylactic, Row 7 (7th of 7 time points)) was 0.3917 and the Viral titers ([1]; therapeutic (d3) group, day 3) was 1.097 log10(TCID50/106 PBMCs) and 1.77 log10(TCID50/106 PBMCs). For the same molecule, the Viral titers ([1]; therapeutic (d3) group, day 7) was 0.7905 log10(TCID50/106 PBMCs) and 1.004 log10(TCID50/106 PBMCs) and 2.281 log10(TCID50/106 PBMCs) and 0 log10(TCID50/106 PBMCs), the Viral titers ([1]; therapeutic (d3) group, day 10) was 1.35 log10(TCID50/106 PBMCs) and 0.8861 log10(TCID50/106 PBMCs) and 2.045 log10(TCID50/106 PBMCs) and the Viral titers ([1]; therapeutic (d3) group, day 14) was 0.7375 log10(TCID50/106 PBMCs). For the same molecule, the “PBMC Titers, group mean (Mean 2)” value ([1]; therapeutic (d3), Row 1 (1st of 7 time points)) was 0, the “PBMC Titers, group mean (Mean 2)” value ([1]; therapeutic (d3), Row 2 (2nd of 7 time points)) was 0.4783 and the “PBMC Titers, group mean (Mean 2)” value ([1]; therapeutic (d3), Row 3 (3rd of 7 time points)) was 0.6785. The “PBMC Titers, group mean (Mean 2)” value ([1]; therapeutic (d3), Row 4 (4th of 7 time points)) was 0.7141, the “PBMC Titers, group mean (Mean 2)” value ([1]; therapeutic (d3), Row 5 (5th of 7 time points)) was 0.1233 and the “PBMC Titers, group mean (Mean 2)” value ([1]; therapeutic (d3), Row 6 (6th of 7 time points)) was 0. For the same molecule, the “PBMC Titers, group mean (Mean 2)” value ([1]; therapeutic (d3), Row 7 (7th of 7 time points)) was 0, the Viral titers ([1]; therapeutic (d7) group, day 3) was 0.6162 log10(TCID50/106 PBMCs) and 0.7122 log10(TCID50/106 PBMCs) and 0.8794 log10(TCID50/106 PBMCs) and 0.6642 log10(TCID50/106 PBMCs) and 1.712 log10(TCID50/106 PBMCs) and the Viral titers ([1]; therapeutic (d7) group, day 7) was 2.108 log10(TCID50/106 PBMCs) (2×) and 1.9431 log10(TCID50/106 PBMCs) and 1.854 log10(TCID50/106 PBMCs) and 1.9914 log10(TCID50/106 PBMCs) and 1.699 log10(TCID50/106 PBMCs). For the same molecule, the Viral titers ([1]; therapeutic (d7) group, day 10) was 2.513 log10(TCID50/106 PBMCs) and 2.092 log10(TCID50/106 PBMCs) and 2.1549 log10(TCID50/106 PBMCs) and 2.936 log10(TCID50/106 PBMCs) and 2.626 log10(TCID50/106 PBMCs) and 2.438 log10(TCID50/106 PBMCs), the Viral titers ([1]; therapeutic (d7) group, day 14) was 0.7959 log10(TCID50/106 PBMCs) and 0.3979 log10(TCID50/106 PBMCs) and 1.735 log10(TCID50/106 PBMCs) and the Viral titers ([1]; therapeutic (d7) group, day 17) was 1.174 log10(TCID50/106 PBMCs) and 0.6271 log10(TCID50/106 PBMCs). The “PBMC Titers, group mean (Mean 2)” value ([1]; therapeutic (d7), Row 1 (1st of 7 time points)) was 0, the “PBMC Titers, group mean (Mean 2)” value ([1]; therapeutic (d7), Row 2 (2nd of 7 time points)) was 0.7636 and the “PBMC Titers, group mean (Mean 2)” value ([1]; therapeutic (d7), Row 3 (3rd of 7 time points)) was 1.95. The “PBMC Titers, group mean (Mean 2)” value ([1]; therapeutic (d7), Row 4 (4th of 7 time points)) was 2.46, the “PBMC Titers, group mean (Mean 2)” value ([1]; therapeutic (d7), Row 5 (5th of 7 time points)) was 0.49 and the “PBMC Titers, group mean (Mean 2)” value ([1]; therapeutic (d7), Row 6 (6th of 7 time points)) was 0.3. For the same molecule, the “PBMC Titers, group mean (Mean 2)” value ([1]; therapeutic (d7), Row 7 (7th of 7 time points)) was 0, the “effect on height of maximum virus load” value ([1]; treatment initiated at day 7 post-infection, maximum on day 10) was “no significant effect on the height of maximum virus load” and the “PBMC Titers, Mean Diff, untreated vs. treated” value ([1]; untreated vs. prophylactic, Row 1 (1st of 7 time points)) was 0. For the same molecule, the “PBMC Titers, Mean Diff, untreated vs. treated” value ([1]; untreated vs. prophylactic, Row 2 (2nd of 7 time points)) was 0.1201, the “PBMC Titers, Mean Diff, untreated vs. treated” value ([1]; untreated vs. prophylactic, Row 3 (3rd of 7 time points)) was 2.622 and the “PBMC Titers, Mean Diff, untreated vs. treated” value ([1]; untreated vs. prophylactic, Row 4 (4th of 7 time points)) was 1.541. For the same molecule, the “PBMC Titers, Mean Diff, untreated vs. treated” value ([1]; untreated vs. prophylactic, Row 5 (5th of 7 time points)) was 0.3677, the “PBMC Titers, Mean Diff, untreated vs. treated” value ([1]; untreated vs. prophylactic, Row 6 (6th of 7 time points)) was 0.1017 and the “PBMC Titers, Mean Diff, untreated vs. treated” value ([1]; untreated vs. prophylactic, Row 7 (7th of 7 time points)) was -0.3917. For the same molecule, the “PBMC Titers, Mean Diff, untreated vs. treated” value ([1]; untreated vs. therapeutic (d3), Row 1 (1st of 7 time points)) was 0, the “PBMC Titers, Mean Diff, untreated vs. treated” value ([1]; untreated vs. therapeutic (d3), Row 2 (2nd of 7 time points)) was -0.06733 and the “PBMC Titers, Mean Diff, untreated vs. treated” value ([1]; untreated vs. therapeutic (d3), Row 3 (3rd of 7 time points)) was 2.195. For the same molecule, the “PBMC Titers, Mean Diff, untreated vs. treated” value ([1]; untreated vs. therapeutic (d3), Row 4 (4th of 7 time points)) was 1.128, the “PBMC Titers, Mean Diff, untreated vs. treated” value ([1]; untreated vs. therapeutic (d3), Row 5 (5th of 7 time points)) was 0.2444 and the “PBMC Titers, Mean Diff, untreated vs. treated” value ([1]; untreated vs. therapeutic (d3), Row 6 (6th of 7 time points)) was 0.23. For the same molecule, the “PBMC Titers, Mean Diff, untreated vs. treated” value ([1]; untreated vs. therapeutic (d3), Row 7 (7th of 7 time points)) was 0, the “PBMC Titers, Mean Diff, untreated vs. treated” value ([1]; untreated vs. therapeutic (d7), Row 1 (1st of 7 time points)) was 0 and the “PBMC Titers, Mean Diff, untreated vs. treated” value ([1]; untreated vs. therapeutic (d7), Row 2 (2nd of 7 time points)) was -0.3527. The “PBMC Titers, Mean Diff, untreated vs. treated” value ([1]; untreated vs. therapeutic (d7), Row 3 (3rd of 7 time points)) was 0.9232, the “PBMC Titers, Mean Diff, untreated vs. treated” value ([1]; untreated vs. therapeutic (d7), Row 4 (4th of 7 time points)) was -0.6175 and the “PBMC Titers, Mean Diff, untreated vs. treated” value ([1]; untreated vs. therapeutic (d7), Row 5 (5th of 7 time points)) was -0.1223. For the same molecule, the “PBMC Titers, Mean Diff, untreated vs. treated” value ([1]; untreated vs. therapeutic (d7), Row 6 (6th of 7 time points)) was -0.06996, the “PBMC Titers, Mean Diff, untreated vs. treated” value ([1]; untreated vs. therapeutic (d7), Row 7 (7th of 7 time points)) was 0 and the “drop of shed virus titers (throat swab) compared to untreated animals” value [2] was “dropped significantly (p = 0.0199) by two orders of magnitude”.
